Source: patent US20250311722A1, “IMPROVED BIOCIDE” (Purgos ApS, priority 2022, published 2025)

Columns and labels:
[1] = tested on: bacteria; experiment: NBDA in different PVB dispersions at 32° C., ATP analysis (LuminUltra); type: cell-based; design: bacteria count 6 mo after adding NBDA / bacteria count 9 mo after adding NBDA / bacteria count 1 d after adding NBDA / bacteria count 1 wk after adding NBDA / bacteria count 1 mo after adding NBDA / bacteria count 3 mo after adding NBDA / bacteria count after 4 mo after addition of NBDA / bacteria count after 6 mo after addition of NBDA: unit not given here; conditions: 0.5% NBDA; for bacteria count after 4 mo after addition of NBDA / bacteria count after 4 wk after addition of NBDA / bacteria count after 6 mo after addition of NBDA / bacteria count after 8 wk after addition of NBDA / bacteria count after 9 mo after addition of NBDA / bacteria count after 12 mo after addition of NBDA: long term
Protocol: The amines selected from stock samples was made from factory prepared stock and sealed solutions delivered in technical quality (95-99.9%). […] Tertiary amine, water and PVB-dispersion was mechanically stirred in IKA vertical fixed blade stirrer for sampling in 2-5 minutes. Conditions was industrial clean, meaning no special precautions was taken to prevent contamination, except normal cleanliness and between operations dishwashing procedures. Working temperatures was 20-25 degre Celsius, and all incubations was made in thermostatic 32-degree Celsius incubator ovens for bottled flasks and open petri dishes. […] The protocol is provided by LuminUltra Technologies. Basically all tested dispersions are manufactured in same way, with only differences in additives, and the variations of origin/source of the waste material (See Example 1). However the specification of the SharkDispersions-all have same basic composition since the stability of the dispersion forces this. The in situ contamination of the production batches may also vary in handling and different storage methods in flasks, IBC's and tanks. In all production the dispersion before treated with tertiary amine is pasteurized due to the general level of production temperatures +90 degrees for several minutes. The biocidal effectivity of NBDA in different PVB dispersions was measured as explained above.

[2] = tested on: Pseudomonas aeruginosa, ATCC 10145; experiment: PT6 screening, in-can preservation of acrylic paint (ATP, aerobic and anaerobic growth on agar plate); type: cell-based
Protocol: The microbial activity in relation to in-can preservation of paint was tested using three methods: ATP measurement, Aerobic growth on agar plate and Anaerobic growth on agar plate in low-air conditions. […] Furthermore, no significant dependence on concentration was shown in these specific tests. Specific about the ATP measurements: test and method developed by Luminultra. A sample is taken from the test paint at a given time and the total amount of ATP is measured. Total ATP amount are measured at Day 7 and 30. After every ATP measurement, streaking of test material on agar plates has been performed. Growth test in aerobic and anaerobic environment are running in 1 and 14 days, respectively. Test organism: Pseudomonas aeruginosa, ATCC 10145 [table] The commercial biocide used for the results listed in Table VIII is Vinkocide CMIK R. Acrylic paint is standard EN152 (modified without PT6 biocide). P. aeruginosa are inoculated in 200 μl concentration to paint sample size of 140 ml in a sterile “paint can-shape” container. Shark Solution candidate A and the commercial biocide are added to the standard paint and mixed in a shaker machine. Every matrix is tested in two replications (n=2) with an additional replication without inoculation of bacteria.

[3] = PVB dispersion FX2, 32° C., with 0.5% peroxide
[4] = PVB dispersion FX2, 32° C., without peroxide
[5] = PVB dispersion FX6, 32° C., with 0.5% peroxide
[6] = PVB dispersion FX6, 32° C., without peroxide
[7] = PVB dispersion SX, 32° C., with 0.5% peroxide
[8] = PVB dispersion SX, 32° C., without peroxide
[9] = PVB dispersion WX2s, 32° C., with 0.5% peroxide
[10] = PVB dispersion WX2s, 32° C., without peroxide
[11] = PVB dispersion WX, 32° C., with 0.5% peroxide
[12] = PVB dispersion WX, 32° C., without peroxide

With `CCCCN(CCO)CCO` [NBDA, N-butyldiethanolamine] the “bacteria count 1 mo after adding NBDA” value [1, 3] was 22, the “bacteria count 1 wk after adding NBDA” value [1, 3] was 9.9 and the “bacteria count 3 mo after adding NBDA” value [1, 3] was 3. For the same compound, the “bacteria count 1 d after adding NBDA” value [1, 3] was 17.6, the “bacteria count 1 mo after adding NBDA” value [1, 4] was 77.1 and the “bacteria count 1 wk after adding NBDA” value [1, 4] was 1.8. The “bacteria count 3 mo after adding NBDA” value [1, 4] was 64, the “bacteria count 6 mo after adding NBDA” value [1, 4] was 15.5 and the “bacteria count 1 d after adding NBDA” value [1, 4] was 7.7. The “bacteria count 1 mo after adding NBDA” value [1, 5] was 0.93, the “bacteria count 1 wk after adding NBDA” value [1, 5] was 239 and the “bacteria count 3 mo after adding NBDA” value [1, 5] was 28. For the same compound, the “bacteria count 6 mo after adding NBDA” value [1, 5] was 62, the “bacteria count 9 mo after adding NBDA” value [1, 5] was 15.4 and the “bacteria count 1 d after adding NBDA” value [1, 5] was 31.7. For the same compound, the “bacteria count 1 mo after adding NBDA” value [1, 6] was 0.93, the “bacteria count 1 wk after adding NBDA” value [1, 6] was 25 and the “bacteria count 3 mo after adding NBDA” value [1, 6] was 1.4. For the same compound, the “bacteria count 6 mo after adding NBDA” value [1, 6] was 1.1, the “bacteria count 9 mo after adding NBDA” value [1, 6] was 1.51 and the “bacteria count 1 d after adding NBDA” value [1, 6] was 48.5. The “bacteria count 1 mo after adding NBDA” value [1, 7] was 24.2, the “bacteria count 1 wk after adding NBDA” value [1, 7] was 48.1 and the “bacteria count 3 mo after adding NBDA” value [1, 7] was 54.6. For the same compound, the “bacteria count 6 mo after adding NBDA” value [1, 7] was 53, the “bacteria count 9 mo after adding NBDA” value [1, 7] was 21.9 and the “bacteria count 1 d after adding NBDA” value [1, 7] was 24.3. The “bacteria count 1 mo after adding NBDA” value [1, 8] was 19.5, the “bacteria count 1 wk after adding NBDA” value [1, 8] was 42.1 and the “bacteria count 3 mo after adding NBDA” value [1, 8] was 26. For the same compound, the “bacteria count 6 mo after adding NBDA” value [1, 8] was 9, the “bacteria count 9 mo after adding NBDA” value [1, 8] was 15.7 and the “bacteria count 1 d after adding NBDA” value [1, 8] was 17.2. For the same compound, the “bacteria count 1 mo after adding NBDA” value [1, 9] was 74.9, the “bacteria count 1 wk after adding NBDA” value [1, 9] was 4.5 and the “bacteria count 3 mo after adding NBDA” value [1, 9] was 28.9. For the same compound, the “bacteria count 6 mo after adding NBDA” value [1, 9] was 7.8, the “bacteria count 1 d after adding NBDA” value [1, 9] was 29.7 and the “bacteria count 1 mo after adding NBDA” value [1, 10] was 25.2. For the same compound, the “bacteria count 1 wk after adding NBDA” value [1, 10] was 7.2, the “bacteria count 3 mo after adding NBDA” value [1, 10] was 13 and the “bacteria count 6 mo after adding NBDA” value [1, 10] was 39.9. The “bacteria count 1 d after adding NBDA” value [1, 10] was 17.6, the “bacteria count 1 mo after adding NBDA” value [1, 11] was 83.4 and the “bacteria count 1 wk after adding NBDA” value [1, 11] was 79. For the same compound, the “bacteria count 3 mo after adding NBDA” value [1, 11] was 13.3, the “bacteria count 6 mo after adding NBDA” value [1, 11] was 63.8 and the “bacteria count 9 mo after adding NBDA” value [1, 11] was 35. The “bacteria count 1 d after adding NBDA” value [1, 11] was 4.2, the “bacteria count 1 mo after adding NBDA” value [1, 12] was 31.6 and the “bacteria count 1 wk after adding NBDA” value [1, 12] was 180. For the same compound, the “bacteria count 3 mo after adding NBDA” value [1, 12] was 7.4, the “bacteria count 6 mo after adding NBDA” value [1, 12] was 11.2 and the “bacteria count 9 mo after adding NBDA” value [1, 12] was 57.7. The “bacteria count 1 d after adding NBDA” value [1, 12] was 110, the “bacteria count after 4 mo after addition of NBDA” value (shortened to “bacteria count after 4 mo”) ([1]; PVB dispersion FX1, 32° C.) was 10.1 and the “bacteria count after 4 wk after addition of NBDA” value (“bacteria count after 4 wk” for short) ([1]; PVB dispersion FX1, 32° C.) was 3.7. For the same compound, the “bacteria count after 6 mo after addition of NBDA” value (“bacteria count after 6 mo” below) ([1]; PVB dispersion FX1, 32° C.) was 1, the “bacteria count after 8 wk after addition of NBDA” value (shortened to “bacteria count after 8 wk”) ([1]; PVB dispersion FX1, 32° C.) was 18.5 and the “bacteria count after 9 mo after addition of NBDA” value (“bacteria count after 9 mo” for short) ([1]; PVB dispersion FX1, 32° C.) was 34. For the same compound, the “bacteria count after 12 mo after addition of NBDA” value (“bacteria count after 12 mo” below) ([1]; PVB dispersion FX1, 32° C.) was 2.3, the “bacteria count after 4 mo” value ([1]; PVB dispersion FX2, 32° C.) was 13.1 and the “bacteria count after 4 wk” value ([1]; PVB dispersion FX2, 32° C.) was 12.4. The “bacteria count after 6 mo” value ([1]; PVB dispersion FX2, 32° C.) was 6.9, the “bacteria count after 8 wk” value ([1]; PVB dispersion FX2, 32° C.) was 4.6 and the “bacteria count after 9 mo” value ([1]; PVB dispersion FX2, 32° C.) was 67.9. The “bacteria count after 12 mo” value ([1]; PVB dispersion FX2, 32° C.) was 15.6, the “bacteria count after 4 mo” value ([1]; PVB dispersion FX6, 32° C.) was 9.1 and the “bacteria count after 4 wk” value ([1]; PVB dispersion FX6, 32° C.) was 64.3. The “bacteria count after 6 mo” value ([1]; PVB dispersion FX6, 32° C.) was 52.1, the “bacteria count after 8 wk” value ([1]; PVB dispersion FX6, 32° C.) was 12.1 and the “bacteria count after 9 mo” value ([1]; PVB dispersion FX6, 32° C.) was 7.3. For the same compound, the “bacteria count after 12 mo” value ([1]; PVB dispersion FX6, 32° C.) was 367, the “bacteria count after 4 mo” value ([1]; PVB dispersion WX1, 32° C.) was 8.1 and the “bacteria count after 4 wk” value ([1]; PVB dispersion WX1, 32° C.) was 38.4. The “bacteria count after 6 mo” value ([1]; PVB dispersion WX1, 32° C.) was 5, the “bacteria count after 8 wk” value ([1]; PVB dispersion WX1, 32° C.) was 4.6 and the “bacteria count after 9 mo” value ([1]; PVB dispersion WX1, 32° C.) was 8.9. The “bacteria count after 12 mo” value ([1]; PVB dispersion WX1, 32° C.) was 16.8, the “bacteria count after 4 mo” value ([1]; PVB dispersion WX25, 32° C.) was 68 and the “bacteria count after 4 wk” value ([1]; PVB dispersion WX25, 32° C.) was 94. For the same compound, the “bacteria count after 6 mo” value ([1]; PVB dispersion WX25, 32° C.) was 170, the “bacteria count after 8 wk” value ([1]; PVB dispersion WX25, 32° C.) was 82 and the “bacteria count after 9 mo” value ([1]; PVB dispersion WX25, 32° C.) was 238. For the same compound, the “bacteria count after 12 mo” value ([1]; PVB dispersion WX25, 32° C.) was 181, the “anti-microbial potential in paint” value ([2]; 1, 2 and 5% NBDA) was “reveal anti-microbial potentials” and the “effectiveness in in-can preservation of paints” value ([2]; concentrations of 0.5%, 1%, 2%, and 5%) was “effective against aerobic bacteria”.
